Measured values from patent US10835456B2, “Propyl gallate-containing vitamin preparations” (BASF SE, priority 2016, dated 2020).
Where “and” joins values, the source holds several entries; their conditions need not be identical. Identical values can stand only once.

Columns and labels:
Assay type in all cases: physicochemical
[1] = Stress test: stability in premix mixture, stored at 40° C. and 70% humidity for 4 weeks, retention of vitamin content; conditions: for Retention Active ingredient content after 4-week premix test: Table 3b
Method: The stress test for the vitamins is configured such that specimens of 100 mg in each case of the formulation produced and 4 g of premix mixture are weighed into glass vessels. The premix mixture consists of 50% by weight of fine lime (particle size <1000 μm), 20% by weight of wheat bran (particle size <1000 μm), 20% by weight of 50% silica-supported choline chloride (particle size <1000 μm) and 10% by weight of trace element mixture (particle size 100-500 μm). The trace element mixture is composed of 46.78% by weight of FeSO4x7H2O (100-500 μm), 37.43% by weight of CuSO4x5H2O (100-500 μm), 11.79% by weight of ZnO (<500 μm), 3.61% by weight of MnO and 0.39% by weight of CoCO3. After addition of all ingredients, the specimens are mixed cautiously, with performance of the mixing mechanically or else by hand, and these specimens (A) are stored in a climate-controlled chamber at 40° C. and 70% humidity for 4 weeks. […]
For this purpose, specimens each of 100 mg of the formulation produced and 4 g of premix mixture are weighed out in glass vessels (50 mL glass vials). The premix mixture consists of 50% by weight of fine lime (particle size <1000 μm), 20% by weight of wheat bran (particle size <1000 μm), 20% by weight of 50% silica-supported choline chloride (particle size <1000 μm) and 10% by weight of trace element mixture (particle size 100-500 μm), said trace element mixture consisting of 46.78% by weight of FeSO4x7H2O (100-500 μm), 37.43% by weight of CuSO4x5H2O (100-500 μm), 11.79% by weight of ZnO (<500 μm), 3.61% by weight of MnO and 0.39% by weight of CoCO3. After addition of all ingredients, the specimens are mixed cautiously, where the mixing can be performed mechanically or else by hand, and these specimens (A) are stored in a climate-controlled chamber at 40° C. and 70% humidity for 4 weeks. An identical test is conducted with a comparative sample (B) which is of identical composition but which comprises, rather than propyl gallate, the same amount of ethoxyquin. […] The ratio of the contents after (A2), (B2) and before the storage (A1) and (B1) are used here to calculate the retention (A2/A1) or (B2/B1) of the samples. For the formulations of the invention, a quotient (A2/A1):(B2/B1) of at least 0.75 is determined here. Preferably, for the formulations of the invention, a quotient of at least 1 is obtained.
The stability of the particles thus produced was tested in a stress test. For this purpose, specimens each of 100 mg of the particles produced and 4 g of premix mixture were weighed into 50 mL glass bottles. The premix mixture consisted of 50% by weight of fine lime (particle size <1000 μm), 20% by weight of wheat bran (particle size <1000 μm), 20% by weight of 50% silica-supported choline chloride (particle size <1000 μm) and 10% by weight of trace element mixture (particle size 100-500 μm), and the trace element mixture of 46.78% by weight of FeSO4x7H2O (100-500 μm), 37.43% by weight of CuSO4x5H2O (100-500 μm), 11.79% by weight of ZnO (<500 μm), 3.61% by weight of MnO and 0.39% by weight of CoCO3. After addition of all ingredients, the specimens were carefully mixed by hand. These specimens were stored in a climate-controlled chamber at 40° C. and 70% air humidity for 4 weeks. […]

[2] = Particle size after dissolution in water by photon correlation spectroscopy (Malvern Zetasizer Nano ZSP); conditions: PCS; for particle size / polydispersity index PDI: dry powder with propyl gallate added to the dispersion (Examples 1, 3b, 3c, 3d)
Method: The particle size is determined by means of a Malvern Zetasizer Nano ZSP.
30 g of citranaxanthin were suspended in 240 g of isopropanol together with 1.1 g of ascorbyl palmitate and, with setting of the pressure-limiting valve to 30 bar, mixed continuously with 390 g of isopropanol in a mixing chamber A. At a metering rate of 6 L/h on the suspension side and of 9 L/h on the solvent side, a mixing temperature of 170° C. was established in the mixing chamber A. After a residence time of 0.3 second, the molecularly disperse solution was mixed in mixing chamber B with a solution of 32 g of gelatin, 71.4 g of sucrose and 50 g of glucose syrup in 4000 g of water at a throughput rate of 100 L/h. After the solvent had been removed under reduced pressure in a distillation apparatus, an active ingredient dispersion was obtained, to which 8 g of sunflower oil and 8 g of propyl gallate were added. The propyl gallate was predissolved here in 200 mL of water and adjusted to pH 7 with NaOH. Subsequently, the dispersion was converted to a stable, water-soluble dry powder by spray drying. After dissolution in water, by photon correlation spectroscopy (PCS), a particle size of 386 nm (standard deviation 142.5, polydispersity index PDI 0.185, D(95): 660 nm) was measured (Malvern Zetasizer Nano ZSP).

[3] = as above; conditions: PCS
[4] = Table 4b, D,L-α tocopherol 4% by wt. (in active ingredient phase) + propyl gallate 4% by wt. (in protective colloid phase)
[5] = Table 4b, mixed tocopherol 4% by wt. (in active ingredient phase) + propyl gallate 4% by wt. (in protective colloid phase)
[6] = dry powder with 4% by weight of propyl gallate and 4% by weight of butylhydroxytoluene
[7] = dry powder with 4% by weight of propyl gallate and 4% by weight of mixed tocopherol

## CC1=C(/C=C/C(C)=C/C=C/C(C)=C/C=C/C=C(C)/C=C/C=C(C)/C=C/C2=C(C)C(=O)CCC2(C)C)C(C)(C)CCC1=O [Canthaxanthin]
[1]; propyl gallate 4%, dispersion
  Retention Active ingredient content after 4-week premix test: 61.2%
[1]; propyl gallate 6%, dispersion
  Retention Active ingredient content after 4-week premix test: 77.9%
[1]; propyl gallate 8%, dispersion
  Retention Active ingredient content after 4-week premix test: 83.3%
[1]; propyl gallate 9%, dispersion
  Retention Active ingredient content after 4-week premix test: 82.4%
[1]; propyl gallate 10%, dispersion
  Retention Active ingredient content after 4-week premix test: 69.8%
[1]; propyl gallate 12%, dispersion
  Retention Active ingredient content after 4-week premix test: 47.2%
[1]; Table 4a, D,L-α tocopherol 4% by wt., active ingredient phase
  Retention Active ingredient content after 4-week test: 45.7%
[1]; Table 4a, mixed tocopherol 4% by wt., active ingredient phase
  Retention Active ingredient content after 4-week test: 48.7%
[1]; [4]
  Retention Active ingredient content after 4-week test: 57.2%
[1]; [5]
  Retention Active ingredient content after 4-week test: 78.1%
[1]; Table 5a, propyl gallate 0% by wt., mixed tocopherol 4% by wt.
  Retention Canthaxanthin after 4-week test: 48.7%
[1]; Table 5a, propyl gallate 4% by wt., mixed tocopherol 0% by wt.
  Retention Canthaxanthin after 4-week test: 61.2%
[1]; Table 5a, propyl gallate 4% by wt., mixed tocopherol 2% by wt.
  Retention Canthaxanthin after 4-week test: 80.8%
[1]; Table 5a, propyl gallate 4% by wt., mixed tocopherol 4% by wt.
  Retention Canthaxanthin after 4-week test: 80.3%
[1]; Table 5a, propyl gallate 6% by wt., mixed tocopherol 0% by wt.
  Retention Canthaxanthin after 4-week test: 71.3%
[1]; Table 5a, propyl gallate 8% by wt., mixed tocopherol 0% by wt.
  Retention Canthaxanthin after 4-week test: 83.3%
[1]; Table 5b, propyl gallate 4% by wt. (in protective colloid phase pH 7), mixed tocopherol 1% by wt. (in active ingredient phase)
  Retention Canthaxanthin after 4-week test: 72.8%
[1]; Table 5b, propyl gallate 4% by wt. (in protective colloid phase pH 7), mixed tocopherol 2% by wt. (in active ingredient phase)
  Retention Canthaxanthin after 4-week test: 76%
[1]; Table 5b, propyl gallate 4% by wt. (in protective colloid phase pH 7), mixed tocopherol 4% by wt. (in active ingredient phase)
  Retention Canthaxanthin after 4-week test: 80.6%
[2]; dry powder with propyl gallate added to the dispersion (Examples 1, 3b)
  D(95): 594 nm
[2]
  particle size: 290 nm
  polydispersity index PDI: 0.193

## CC(=O)/C=C/C(C)=C/C=C/C(C)=C/C=C/C=C(C)/C=C/C=C(C)/C=C/C1=C(C)CCCC1(C)C [Citranaxanthin]
[1]; Table 3a, propyl gallate 0% by wt., dispersion
  Retention Active ingredient content after 4-week test: 7.9%
[1]; Table 3a, propyl gallate 2% by wt., dispersion
  Retention Active ingredient content after 4-week test: 20.2%
[1]; Table 3a, propyl gallate 3% by wt., dispersion
  Retention Active ingredient content after 4-week test: 26.7%
[1]; Table 3a, propyl gallate 4% by wt., dispersion
  Retention Active ingredient content after 4-week test: 47.8%
[1]; Table 3a, propyl gallate 5% by wt., dispersion
  Retention Active ingredient content after 4-week test: 45.7%
[1]; Table 3a, propyl gallate 6% by wt., dispersion
  Retention Active ingredient content after 4-week test: 45.9%
[1]; Table 3a, propyl gallate 7% by wt., dispersion
  Retention Active ingredient content after 4-week test: 49.5%
[1]; Table 3a, propyl gallate 8% by wt., dispersion
  Retention Active ingredient content after 4-week test: 55.9%
[1]; Table 3a, propyl gallate 8.5% by wt., dispersion
  Retention Active ingredient content after 4-week test: 51.9%
[1]; Table 3a, propyl gallate 9% by wt., dispersion
  Retention Active ingredient content after 4-week test: 57.4%
[1]; Table 3a, propyl gallate 10% by wt., dispersion
  Retention Active ingredient content after 4-week test: 19.6%
[1]; [4]
  Retention Active ingredient content after 4-week test: 21.3%
[1]; [5]
  Retention Active ingredient content after 4-week test: 67.5%
[1]; Table 5c, propyl gallate 0% by wt., mixed tocopherol 4% by wt.
  Retention Canthaxanthin after 4-week test: 10.8%
[1]; Table 5c, propyl gallate 4% by wt., mixed tocopherol 0% by wt.
  Retention Canthaxanthin after 4-week test: 39.1%
[1]; Table 5c, propyl gallate 4% by wt., mixed tocopherol 4% by wt.
  Retention Canthaxanthin after 4-week test: 66.5%
[1]; Table 5d, 4% by wt. of ethoxyquin
  Retention Canthaxanthin after 4-week test: 79.3%
[1]; Table 5d, propyl gallate 0% by wt., BHT 4% by wt.
  Retention Canthaxanthin after 4-week test: 56.1% and 65.5% and 67.9%
[1]; Table 5d, propyl gallate 4% by wt., BHT 0% by wt.
  Retention Canthaxanthin after 4-week test: 61.2%
[1]; Table 5d, propyl gallate 4% by wt., BHT 4% by wt.
  Retention Canthaxanthin after 4-week test: 82.3%
[1]; propyl gallate 4% by wt. added to dispersion in solid form without pre-dissolution
  Retention Active ingredient content after 4-week test: 47.2% and 44.9%
[1]; propyl gallate 4% by wt. added to dispersion, dissolved in water pH 7
  Retention Active ingredient content after 4-week test: 46% and 49.4% and 47.8%
[1]; propyl gallate 4% by wt. added to dispersion, pH of sprayed dispersion 4.5
  Retention (active constituent after 4 weeks in the test): 42.2%
[1]; propyl gallate 4% by wt. added to dispersion, pH of sprayed dispersion 6
  Retention (active constituent after 4 weeks in the test): 39.1%
[1]; propyl gallate 4% by wt. added to dispersion, pH of sprayed dispersion 7
  Retention (active constituent after 4 weeks in the test): 47.8%
[1]; propyl gallate 4% by wt. added to dispersion, pH of sprayed dispersion 8
  Retention (active constituent after 4 weeks in the test): 49.4%
[1]; propyl gallate 4% by wt. added to dispersion, pH of sprayed dispersion 9
  Retention (active constituent after 4 weeks in the test): 28.2%
[1]; propyl gallate 4% by wt. added to dispersion, pH of sprayed dispersion 10
  Retention (active constituent after 4 weeks in the test): 36.4%
[1]; propyl gallate 4% by wt. added to dispersion, pH of sprayed dispersion 11
  Retention (active constituent after 4 weeks in the test): 14.7%
[1]; propyl gallate 4% by wt. in colloid phase, pH of the colloid phase 8.5-9.5
  Retention Active ingredient content after 4-week test: 13.4%
[1]; propyl gallate 4% by wt. in colloid phase, pH preadjustment to 7, then adjustment to pH 8.5 at maximum
  Retention Active ingredient content after 4-week test: 44.1%
[3]; [6]
  particle size: 290 nm
  polydispersity index PDI: 0.180
[3]; [7]
  particle size: 280 nm
  polydispersity index PDI: 0.185

## CC1=C(/C=C/C(C)=C/C=C/C(C)=C/C=C/C=C(C)/C=C/C=C(C)/C=C/C2=C(C)CCCC2(C)C)C(C)(C)CCC1 [β-carotene]
[1]; Table 3d, ethoxyquin 4% by wt., dispersion
  Retention Active ingredient content after 4-week test: 22.2%
[1]; Table 3d, propyl gallate 4% by wt., dispersion
  Retention Active ingredient content after 4-week test: 30.3%
[2]
  particle size: 262 nm
  polydispersity index PDI: 0.268
